In one experiment the target is T1, FAAH (Homo sapiens, UniProt O00519).
T1 construct: Human bladder epithelial carcinoma-derived cell line, 5637 cells (HTB-9; host or cells: 5637 human bladder epithelial carcinoma cells
T1 sequence (O00519 1-579): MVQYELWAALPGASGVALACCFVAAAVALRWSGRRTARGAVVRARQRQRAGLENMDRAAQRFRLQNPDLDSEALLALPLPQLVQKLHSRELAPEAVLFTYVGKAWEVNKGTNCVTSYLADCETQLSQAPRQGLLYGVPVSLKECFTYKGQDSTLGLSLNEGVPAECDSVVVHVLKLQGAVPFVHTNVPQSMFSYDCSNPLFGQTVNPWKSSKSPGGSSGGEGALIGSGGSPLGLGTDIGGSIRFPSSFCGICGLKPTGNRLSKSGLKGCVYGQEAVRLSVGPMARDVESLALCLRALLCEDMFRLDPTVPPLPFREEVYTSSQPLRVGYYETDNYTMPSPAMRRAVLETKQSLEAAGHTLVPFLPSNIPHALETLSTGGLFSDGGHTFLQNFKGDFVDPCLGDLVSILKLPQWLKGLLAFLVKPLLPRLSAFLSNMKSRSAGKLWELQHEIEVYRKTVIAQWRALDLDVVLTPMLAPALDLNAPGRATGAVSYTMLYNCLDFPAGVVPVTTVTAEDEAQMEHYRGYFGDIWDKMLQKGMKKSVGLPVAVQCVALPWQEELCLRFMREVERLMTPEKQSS
Briefly: Measurement of IC50 value of substance inhibiting FAAH activity using human bladder epithelial carcinoma-derived cell line 5637. The format is cell-based. The method, then:
Screening of Substance Inhibiting FAAH Activity by Using Human Bladder Epithelial Carcinoma-Derived Cell Line
(1) Screening of Substance Inhibiting FAAH Activity
Human bladder epithelial carcinoma-derived cell line, 5637 cells (HTB-9; ATCC) were seeded in a 48-well cell culture plate in an amount of 1×10^5 cells/well by using RPMI 1640 medium (Invitrogen) containing 10% fetal bovine serum (HyClone), followed by incubation at 37° C. for 12 hours or longer, and then the cells in each well were washed with 400 μl of a buffer (Hank's Balanced Salt Solution, 20 mM Hepes-NaOH (pH 7.4)). A test substance dissolved in DMSO was added to a substrate solution (the above buffer containing 3 μCi/ml radiolabeled anandamide (anandamide [ethanolamine 1-^3H]) and 10 μM anandamide) so as to have a concentration from 0.003 nM to 30 nM, and as a control, DMSO was added alone. 100 μl/well of the substrate solution was added to the cells, followed by incubation in a CO2 incubator at 37° C. for 30 minutes. […] A substance decreasing a measured value compared to the control was selected as a substance inhibiting FAAH activity. […]

In experiment [1] the test system is rat model with bladder pain. Briefly: Rat model with bladder pain (cyclophosphamide pre-treated, bladder expansion). The format is in vivo. The method, then:
Action of Compound with Respect to Rat Model with Bladder Pain
The analgesic action of the compound against bladder pain was examined using a pathological model. Cyclophosphamide (150 mg/kg) was administered intraperitoneally, and after two days, physiological saline was injected under a non-restraint condition, at a rate of 45 ml/h via a cannula inserted transurethrally into the bladder, thereby rapidly expanding the bladder. Due to rapid expansion of the bladder, amplification of electromyogram spikes in external oblique abdominal muscle accompanying behavior relating to pain was confirmed. The injection amount at this point in time can be taken as a threshold of bladder pain, which makes it possible to evaluate drug efficacy with respect to the threshold of bladder pain. […] For the rats pre-treated with cyclophosphamide, the threshold of bladder pain before and after the administration of a test compound was measured, and the change in amount (Δ ml) was investigated. In order to obtain a value before administration, bladder expansion was performed until a stabilized threshold of bladder pain was consecutively obtained three times, and the average of the threshold of bladder pain of the final three times was taken as a measured value. […] The average of the threshold of bladder pain consecutively measured three times was taken as a value measured after administration.

Experiment [2] concerns rat model with testis pain. Briefly: Rat model with testis pain (acetic acid into testes, writhing). Type of experiment: in vivo. On the procedure:
Action of Compound with Respect to Rat Model with Testis Pain
The analgesic action of the compound against testis pain was examined using a pathological model. If 1% acetic acid is administered at 1 ml/kg to right and left testes of a rat by using an injection needle, pain behavior (writhing) accompanied by testis pain is observed, which makes it possible to evaluate drug efficacy on the pain behavior. […] The rats were transferred to a cylindrical acryl cage having a diameter of 30 cm and a height of 50 cm, and the number of times of pain behavior shown for 5 minutes to 15 minutes after the acetic acid administration was measured.
(Writhing tests count abdominal constrictions after an irritant is injected.)

As a reminder, the IC50 is the concentration at which inhibition is half-maximal. Low readings indicate higher potency, high ones lower potency.

`NC(=O)c1cncc(OC(=O)N2CCC(CCc3cccc(C(=O)N4CCCCC4)c3)CC2)c1` [Compound I, 5-(aminocarbonyl)pyridin-3-yl 4-{2-[3-(piperidin-1-ylcarbonyl)phenyl]ethyl}piperidine-1-carboxylate]: the IC50 against FAAH turned out to be 0.16 nM.

For `NC(=O)c1cncc(OC(=O)N2CCC(CCc3cccc(C(=O)N4CCCC4)c3)CC2)c1` [Compound J, 5-(aminocarbonyl)pyridin-3-yl 4-{2-[3-(pyrrolidin-1-ylcarbonyl)phenyl]ethyl}piperidine-1-carboxylate], in experiment [1] (rat, in vivo, po), the “Threshold of bladder pain (amount of physiological saline injected), compound-administered group” value is listed as 0.150 Δ ml. In addition, the “Number of times of pain behavior, compound-administered group” value in experiment [2] (rat, in vivo, po) worked out at 9.5.

As to `O=C(Nc1ccccc1)C1CCN(C(=O)Oc2cccnc2)CC1` [Compound L, pyridin-3-yl 4-(anilinocarbonyl)piperidine-1-carboxylate], the “Threshold of bladder pain (amount of physiological saline injected), compound-administered group” value in experiment [1] (male SD rats, 3 mg/5 ml/kg oral, 120 minutes before measurement, change before vs after administration) is listed as 0.173 Δ ml. Further, in experiment [2] (male Wistar rats, 3 mg/5 ml/kg oral, 120 minutes before measurement, counted 5 to 15 minutes after acetic acid), the “Number of times of pain behavior, compound-administered group” value is listed as 6.7.

For the origin of these results see US20130030006A1, “AGENT FOR PREVENTING OR TREATING DISEASES ACCOMPANIED BY URINARY PAIN” (priority 2010, published 2013).
